Source: patent publication EP3079693B1 (priority 2013, dated 2015)

Assays:
[1] = target: influenza A RNA-dependent RNA polymerase (Influenza A virus, UniProt P03428+P03431+P03433); experiment: cell-based
[2] = tested on: primary renal proximal tubule epithelial cells (or RPTEC)
[3] = tested on: liver-derived HepG2 cells
[4] = tested on: H3N2 serotype A/Aichi/2/68; assay type: cell-based, influenza A
influenza B = experiment: Inhibition of influenza B (method not described)
[5] = tested on: influenza A/Puerto Rico/8/34; experiment: In vivo survival study after live infection; set-up: species or system Balb/C mice; details: 3 doses, 2xLD50 intranasal challenge, survival = 70% or more of starting weight
Experimental: In Vivo Survival Studies: Groups of 5 Balb/C mice ([…]) were weighed prior to the start of study and injected intravenously at the base of the tail with formulations containing A0435 at doses of 3.17, 1, or 0 mg/kg in phosphate buffered saline containing 3% w/v mouse serum albumin. Four hours later, these mice were challenged intranasally with 2xLD50 of influenza A/Puerto Rico/8/34 under anesthesia. Identical doses of A0435 were administered 24 and 48 hours after the initial dose administration and animal weights were monitored daily. Surviving animals were defined as those who maintained 70% or more of their starting weight.

[6] = tested on: constitutive gene expression; experiment: Counter screen: separate reporter system with cell death-activated reporter construct (constitutive gene expression); details: counter-screen assay, dose titration
[7] = tested on: influenza A/WS/1933 (H1N1); assay type: cell-based
[8] = tested on: influenza A/Puerto Rico/8/34 (H1N1) virus; assay type: cell-based
influenza A = assay type: cell-based

CCc1c(C)nc2cc(-c3ccc(OC)c(OC)c3)nn2c1NCCc1ccccn1 [A0435, 2-(3,4-dimethoxyphenyl)-6-ethyl-5-methyl-N-[2(pyridin-2-yl)ethyl]pyrazolo[1,5-a]pyrimidin-7-amine]
IC50 [1]: ~3 µM
tolerability in cellular model of toxicity [2]: well-tolerated
tolerability in cellular model of toxicity [3]: well-tolerated
inhibition of virus [4]: significantly inhibited
inhibition of influenza B (influenza B): inhibitable
animals survived infection at day 7 post-infection ([5]; 1 mg/kg intravenously): 2/5
animals survived infection at day 7 post-infection ([5]; 3.17 mg/kg intravenously): 3/5
inhibitory impact on the level of constitutive gene expression [6]: no visible inhibitory impact
inhibition of virus [7]: significantly inhibited
concentrations with significant antiviral activity [8]: > 4 µM
cytopathic effects characteristic of influenza A infection (influenza A): little to no signs of the cytopathic effects
